Experimental data: BindingDB's records for doi:10.1021/jm00160a026 (1986)

Molecular target: Angiotensin-converting enzyme (Cavia porcellus)
Assay: Inhibition of guinea pig angiotensin I converting enzyme

Structure (SMILES)	IC50
CC(=O)SCC(C)C(=O)N1CCc2ccccc2C1 (centres undefined)	49000 nM
CC(=O)SCCC(=O)N1Cc2ccccc2C1C(=O)O (centres undefined)	22000 nM
CCOC(=O)C(CCc1ccccc1)NC(C)C(=O)N1Cc2cc(OC)c(OC)cc2CC1C(=O)OCC (centres undefined)	520 nM
O=C(O)C1c2ccccc2CN1C(=O)CCS (centres undefined)	58000 nM
CC(CS)C(=O)N1CCc2ccccc2C1 (centres undefined)	48000 nM
CC(=O)SCC(C)C(=O)N1Cc2ccccc2CC1C(=O)O (racemic)	130 nM

Further lines, results first:

IC50	Structure (SMILES)
5.8 nM	CC(NC(CCc1ccccc1)C(=O)O)C(=O)N1CCc2ccccc2C1C(=O)O (centres undefined)
> 10000 nM	CCOC(=O)C(CCc1ccccc1)N(C)C(C)C(=O)N1Cc2ccccc2CC1C(=O)O (centres undefined)
3.1 nM	CC(NC(CCc1ccccc1)C(=O)O)C(=O)N1Cc2ccccc2C1C(=O)O (centres undefined)
300 nM	CCOC(=O)C(CCc1ccccc1)NC(C)C(=O)N1Cc2cc(OC)c(OC)cc2CC1C(=O)OCc1ccccc1 (centres undefined)
440 nM	CCOC(=O)C(CCc1ccccc1)NC(C)C(=O)N1Cc2ccccc2CC1C(=O)OCC (centres undefined)
> 1000 nM	CCOC(=O)[C@H](CCc1ccccc1)N[C@@H](C)C(=O)N1Cc2ccccc2[C@@H]1C(=O)O
44 nM	CCOC(=O)[C@H](CCc1ccccc1)N[C@@H](C)C(=O)N1Cc2ccccc2[C@H]1C(=O)O
24000 nM	CC(=O)SCC(C)C(=O)N1Cc2ccccc2C1C(=O)O (mixture of isomers)
